Measurements reported in patent US4808584A, “Quinolinecarboxylic acid derivatives and antibacterial agent containing the same” (Kanebo, Ltd., priority 1987, dated 1989).
In brackets after ≈: the same amount, converted by molar mass. Where a name gives a salt, the structure may show the parent alone. Read-outs that look alike come from different tables or passages of the source.

Experiments:
Assay in all cases: Minimum inhibitory concentration (MIC)
Format in all cases: cell-based
Enterobacter cloacae 963 = conditions: Enterobacter cloacae 963, Gram -
Description: (§1) The compounds of the present invention (A, C, E, F, G, H and I) and ofloxacin as control were dissolved in 0.1N aqueous potassium hydroxide to prepare a solution of 5000 μg/ml in concentration. The compounds of the present invention (B, D and J) were dissolved in sterilized distilled water to prepare a solution of 5000 μg/ml in concentration. Each solution was diluted with sterilized distilled water to prepare a standard solution with a concentration of each test compound: 1000 μg/ml. The test was carried out by a method approved by Japan Society of Chemotherapy [cf. Chemotherapy, 29, 76-79 (1981)(TOKYO)].

Escherichia coli KC-14 = conditions: KC14; Escherichia coli KC-14, Gram -
Description: as §1

[1] = tested on: Micrococcus luteus ATCC 9341; conditions: ATCC9341; Micrococcus luteus ATCC 9341, Gram +
Description: as §1

[2] = tested on: Pseudomonas aeruginosa IFO 3445; conditions: Pseudomonas aeruginosa, IFO3445, Pseudomonas aeruginosa IFO 3445, Gram -
Description: as §1

[3] = tested on: Klebsiella pneumoniae PCI 602; conditions: for MIC: Klebsiella pneumoniae
Description: as §1

[4] = tested on: Pseudomonas aeruginosa NCTC 10490; conditions: for MIC: Pseudomonas aeruginosa, NCTC10490, Pseudomonas aeruginosa NCTC 10490, Gram -
Description: as §1

[5] = tested on: Staphylococcus aureus IID 803; conditions: IID803; Staphylococcus aureus IID 803, Gram +; read-out: Minimum inhibitory concentration (MIC)
Description: as §1

[6] = tested on: Serratia marcescens IAM 1184; conditions: Serratia marcescens, IAM1184, Serratia marcescens IAM 1184, Gram -
Description: as §1

[7] = tested on: Acinetobacter calcoaceticus AC 54; conditions: for MIC: Acinetobacter calcoaceticus, AC54, Acinetobacter calcoaceticus AC 54, Gram -
Description: as §1

[8] = tested on: Staphylococcus epidermidis IAM-1296; conditions: for MIC: Staphylococcus epidermidis, IAM1296, Staphylococcus epidermidis IAM-1296, Gram +
Description: as §1

[9] = tested on: Proteus mirabilis IFO 3849; conditions: IFO3849; Proteus mirabilis IFO 3849, Gram -
Description: as §1

Shigella sonnei EW-33 = conditions: EW33; Shigella sonnei EW-33, Gram -
Description: as §1

[10] = tested on: Bacillus subtilis ATCC 6633
Description: as §1

[11] = tested on: Enterobacter aerogenes ATCC 13048; conditions: for MIC: Klebsiella aerogenes, ATCC13048, Enterobacter aerogenes ATCC 13048, Gram -
Description: as §1

[12] = tested on: Morganella morganii IFO 3848; conditions: IFO3848; Morganella morganii IFO 3848, Gram -
Description: as §1

[13] = tested on: Salmonella typhimurium IID 971; conditions: for MIC: Salmonella enterica, read-out: Minimum inhibitory concentration (MIC)
Description: as §1

[14] = tested on: Staphylococcus aureus FDA 209P JC-1; conditions: FDA209P; Staphylococcus aureus FDA 209P JC-1, Gram +
Description: as §1

[15] = tested on: Citrobacter freundii NIHJ 10018-68; conditions: NIHJ10018; Citrobacter freundii NIHJ 10018-68, Gram -
Description: as §1

[16] = tested on: Pseudomonas aeruginosa E-2; conditions: E2; Pseudomonas aeruginosa E-2, Gram -
Description: as §1

[17] = tested on: Streptococcus faecalis IID 682; conditions: Enterococcus faecalis, IID682, Streptococcus faecalis IID 682, Gram +
Description: as §1

[18] = tested on: Escherichia coli NIHJ JC-2; conditions: NIHJJC2; Escherichia coli NIHJ JC-2, Gram -
Description: as §1

Proteus vulgaris OX-19 = tested on: Proteus vulgaris OX-19
Description: as §1

[19] = PCI602, Klebsiella pneumoniae PCI 602, Gram -, read-out: Minimum inhibitory concentration (MIC)
[20] = ATCC6633, Bacillus subtilis ATCC 6633, Gram +, read-out: Minimum inhibitory concentration (MIC)
[21] = OX19, Proteus vulgaris OX-19, Gram -, read-out: Minimum inhibitory concentration (MIC)
[22] = Salmonella typhimurium IID 971, Gram -

SMILES	MIC (Enterobacter cloacae 963) [µg/mL]	MIC (Escherichia coli KC-14) [µg/mL]	MIC [1] [µg/mL]	MIC [2] [µg/mL]	MIC [4] [µg/mL]	MIC [5] [µg/mL]	MIC [6] [µg/mL]	MIC [7] [µg/mL]	MIC [8] [µg/mL]	MIC [9] [µg/mL]	MIC (Shigella sonnei EW-33) [µg/mL]	MIC [10, 20] [µg/mL]	MIC [11] [µg/mL]	MIC [12] [µg/mL]	MIC [14] [µg/mL]	MIC [15] [µg/mL]	MIC [16] [µg/mL]	MIC [17] [µg/mL]	MIC [18] [µg/mL]	MIC (Proteus vulgaris OX-19; [21]) [µg/mL]	also measured
CCN1CCN(c2c(F)cc3c(=O)c(C(=O)O)c4scc5n4c3c2OC5)CC1 [Compound (J), 9,1-Epoxymethano-7-fluoro-8-(4-ethyl-1-piperazinyl)-5-oxo-5H-thiazolo[3,2-a]quinoline-4-carboxylic acid.hydrochloride.1/2hydrate]	0.1	0.1	3.13	3.13	0.78	0.2	0.39	0.1	0.39	0.39	0.1	0.1	0.1	0.1	0.2	0.39	1.56	0.78	0.1	0.05	MIC [3, 19]: 0.025 µg/mL; MIC [13]: 0.05 µg/mL
O=C(O)c1c(=O)c2cc(F)c(N3CCNCC3)c3c2n2c(csc12)CO3 [Compound (C), 9,1-Epoxymethano-7-fluoro-8-(1-piperazinyl)-5-oxo-5H-thiazolo[3,2-a]quinoline-4-carboxylic acid]	0.2 (≈ 0.533 µM)	0.1 (≈ 0.266 µM)	3.13	0.78 (≈ 2.08 µM)	0.39 (≈ 1.04 µM)	0.39 (≈ 1.04 µM)	0.39 (≈ 1.04 µM)	0.78 (≈ 2.08 µM)	0.78	0.2 (≈ 0.533 µM)	0.05 (≈ 0.133 µM)	0.2 (≈ 0.533 µM)	0.1 (≈ 0.266 µM)	0.1 (≈ 0.266 µM)	0.39	0.2 (≈ 0.533 µM)	0.78 (≈ 2.08 µM)	0.78	0.1 (≈ 0.266 µM)	0.1 (≈ 0.266 µM)	MIC [3, 19]: 0.05 µg/mL (≈ 0.133 µM); MIC [13, 22]: 0.05 µg/mL (≈ 0.133 µM)
O=C(O)c1c(=O)c2cc(F)c(N3CCN(O)CC3)c3c2n2c(csc12)CO3 [Compound (F), 9,1-Epoxymethano-7-fluoro-8-(4-hydroxy-1-piperazinyl)-5-oxo-5H-thiazolo[3,2-a]quinoline-4-carboxylic acid.1/4hydrate]	0.2	0.1	6.25	1.56	0.78	0.39	0.78	1.56	1.56	0.2	0.05	–	0.1	0.1	0.39	0.2	1.56	1.56	0.2	0.05	MIC [3, 19]: 0.025 µg/mL; MIC ([10]; Bacillus subtilis, ATCC6633, read-out: Minimum inhibitory concentration (MIC)): 0.1 µg/mL; MIC [13, 22]: 0.05 µg/mL
CC1CN(c2c(F)cc3c(=O)c(C(=O)O)c4scc5n4c3c2OC5)CCN1 (stereo not drawn) [Compound (E), 9,1-Epoxymethano-7-fluoro-8-(3-methyl-1-piperazinyl)-5-oxo-5H-thiazolo[3,2-a]quinoline-4-carboxylic acid.1/4hydrate]	0.2	0.1	3.13	1.56	0.78	0.2	0.39	0.78	0.78	0.2	0.1	0.1	0.1	0.1	0.2	0.78	0.78	0.78	0.2	–	MIC [3, 19]: 0.025 µg/mL; MIC [13, 22]: 0.1 µg/mL; MIC (Proteus vulgaris OX-19; Proteus vulgaris, OX19, read-out: Minimum inhibitory concentration (MIC)): 0.05 µg/mL
CN1CCN(c2c(F)cc3c(=O)c(C(=O)O)c4scc5n4c3c2OC5)CC1 [Compound (A), 9,1-Epoxymethano-7-fluoro-8-(4-methyl-1-piperazinyl)-5-oxo-5H-thiazolo[3,2-a]quinoline-4-carboxylic acid]	0.1 (≈ 0.257 µM)	0.1 (≈ 0.257 µM)	1.56	0.78 (≈ 2 µM)	0.78 (≈ 2 µM)	0.2 (≈ 0.514 µM)	0.2 (≈ 0.514 µM)	0.2 (≈ 0.514 µM)	0.39	0.2 (≈ 0.514 µM)	0.05 (≈ 0.128 µM)	0.1 (≈ 0.257 µM)	0.1 (≈ 0.257 µM)	0.1 (≈ 0.257 µM)	0.2	0.2 (≈ 0.514 µM)	0.78 (≈ 2 µM)	0.39	0.1 (≈ 0.257 µM)	0.05 (≈ 0.128 µM)	MIC [13, 22]: 0.05 µg/mL (≈ 0.128 µM)
NC1CCN(c2c(F)cc3c(=O)c(C(=O)O)c4scc5n4c3c2OC5)C1 (stereo not drawn) [Compound (I), 9,1-Epoxymethano-7-fluoro-8-(3-amino-1-pyrrolidinyl)-5-oxo-5H-thiazolo[3,2-a]quinoline-4-carboxylic acid]	0.2 (≈ 0.533 µM)	0.1 (≈ 0.266 µM)	1.56	0.78 (≈ 2.08 µM)	0.39 (≈ 1.04 µM)	0.39 (≈ 1.04 µM)	0.78 (≈ 2.08 µM)	0.78 (≈ 2.08 µM)	0.78	0.39 (≈ 1.04 µM)	0.1 (≈ 0.266 µM)	0.2 (≈ 0.533 µM)	0.1 (≈ 0.266 µM)	0.2 (≈ 0.533 µM)	0.2	0.2 (≈ 0.533 µM)	0.78 (≈ 2.08 µM)	0.78	0.2 (≈ 0.533 µM)	0.2 (≈ 0.533 µM)	MIC ([3]; PCI602, read-out: Minimum inhibitory concentration (MIC)): 0.05 µg/mL (≈ 0.133 µM); MIC [13, 22]: 0.1 µg/mL (≈ 0.266 µM)
O=C(O)c1c(=O)c2cc(F)c(N3CCNCC3)c3c2n2c(csc12)CO3 [Compound (D), 9,1-Epoxymethano-7-fluoro-8-(1-piperazinyl)-5-oxo-5H-thiazolo[3,2-a]quinoline-4-carboxylic acid.hydrochloride.1/2hydrate]	–	–	–	–	–	–	–	–	–	–	–	–	–	–	–	–	–	–	–	–	Minimum inhibitory concentration (MIC) ([3]; Klebsiella pneumoniae PCI 602, Gram -): 0.025 µg/mL; Minimum inhibitory concentration (MIC) ([4]; Pseudomonas aeruginosa NCTC 10490, Gram -): 0.78 µg/mL; Minimum inhibitory concentration (MIC) ([7]; Acinetobacter calcoaceticus AC 54, Gram -): 1.56 µg/mL; Minimum inhibitory concentration (MIC) ([8]; Staphylococcus epidermidis IAM-1296, Gram +): 1.56 µg/mL; Minimum inhibitory concentration (MIC) ([11]; Enterobacter aerogenes ATCC 13048, Gram -): 0.20 µg/mL; Minimum inhibitory concentration (MIC) [13, 22]: 0.10 µg/mL
O=C(O)c1c(=O)c2cc(F)c(N3CCC(O)C3)c3c2n2c(csc12)CO3 (stereo not drawn) [Compound (H), 9,1-Epoxymethano-7-fluoro-8-(3-hydroxy-1-pyrrolidinyl)-5-oxo-5H-thiazolo[3,2-a]quinoline-4-carboxylic acid]	0.1 (≈ 0.266 µM)	0.05 (≈ 0.133 µM)	0.78	0.39 (≈ 1.04 µM)	0.39 (≈ 1.04 µM)	0.025 (≈ 0.0664 µM)	0.39 (≈ 1.04 µM)	0.1 (≈ 0.266 µM)	0.2	0.1 (≈ 0.266 µM)	0.05 (≈ 0.133 µM)	0.006 (≈ 0.0159 µM)	0.1 (≈ 0.266 µM)	0.1 (≈ 0.266 µM)	0.025	0.39 (≈ 1.04 µM)	0.39 (≈ 1.04 µM)	0.2	0.05 (≈ 0.133 µM)	0.0125 (≈ 0.0332 µM)	MIC [3, 19]: 0.006 µg/mL (≈ 0.0159 µM); MIC [13, 22]: 0.0125 µg/mL (≈ 0.0332 µM)
